Columns and labels:
[1] = Water contact angle of polymer (spin-coated film, static contact angle); type: physicochemical; settings: homopolymer of the monomer; silicon wafer spin-coated with 1.0% chloroform solution; 2 µL water, 1 minute after the droplet reached the film
Experimental: For the water contact angle of the polymer, a silicon wafer substrate was spin-coated with a chloroform solution of the resulting polymer with a solid concentration of 1.0% and the static water contact angle was measured. The static contact angle was obtained by dropping 2 µL of water on a coating film and measuring the contact angle 1 minute after the droplet reached the film.

[2] = Solubility in water of polymer and of monomer; type: physicochemical; settings: thermodynamic from solid
Experimental: For the solubility in water of the monomers, the respective monomers were added in small batches to a predetermined amount of water, and the solubility in water was determined from the amount of dissolution when no more monomer could be dissolved (floating, precipitation or deposition occurred, or the solution became clouded).

SMILES	Water contact angle of homopolymer [1]	melting point	solubility [2]
C=CC(=O)OCCCCCCCCCCCCCCCCCC [SA, stearyl acrylate]	102 °	50 °C	< 100 µg/mL
C=C(C)C(=O)OCC(CC)CCCC (stereo not shown) [EHMA, 2-ethyhexyl methacrylate]	97 °	–	–

From US20230122463A1, “ORGANIC FINE PARTICLE” (DAIKIN INDUSTRIES, LTD., priority 2020, published 2023)
